Laboratory results as given in patent US7842808B2, “Anti-migraine spirocycles” (Bristol-Myers Squibb Company, priority 2002, dated 2010).
Where two headings read alike, the source gives them in different places.

Columns and labels:
[1] = target: T1, CGRP receptor (SK-N-MC cell membranes) (Homo sapiens, UniProt O60894+Q16602); assay: CGRP Binding Assay ([125I]-CGRP radioligand binding, SK-N-MC homogenate); conditions: displacement of [125I]-CGRP, SK-N-MC homogenate; read-out: CGRP binding IC50
T1 construct: endogenous in cells; host or cells: SK-N-MC cells (membrane homogenate)
T1 sequence (Q16602 23-461): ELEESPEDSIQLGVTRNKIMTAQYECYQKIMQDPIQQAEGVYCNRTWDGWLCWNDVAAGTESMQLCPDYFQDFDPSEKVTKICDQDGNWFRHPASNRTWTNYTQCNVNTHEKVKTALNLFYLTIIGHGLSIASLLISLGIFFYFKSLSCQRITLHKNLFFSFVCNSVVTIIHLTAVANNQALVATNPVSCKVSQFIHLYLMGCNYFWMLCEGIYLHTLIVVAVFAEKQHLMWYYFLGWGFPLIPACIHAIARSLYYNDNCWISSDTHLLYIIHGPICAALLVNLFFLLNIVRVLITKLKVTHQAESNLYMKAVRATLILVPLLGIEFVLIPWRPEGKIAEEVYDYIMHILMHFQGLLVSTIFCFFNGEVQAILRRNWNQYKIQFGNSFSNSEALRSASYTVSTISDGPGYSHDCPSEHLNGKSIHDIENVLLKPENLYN
T1 sequence (O60894 27-148): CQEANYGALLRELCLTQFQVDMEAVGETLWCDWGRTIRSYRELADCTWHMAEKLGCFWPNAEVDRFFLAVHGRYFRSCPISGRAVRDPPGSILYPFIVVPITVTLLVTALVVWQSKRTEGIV

[2] = target: T2, human CGRP receptor (SK-N-MC cells) (Homo sapiens, UniProt O60894+Q16602); assay: Cyclic AMP Assay, functional antagonism of CGRP-induced cyclic AMP formation; type: cell-based
T2 construct: SK-N-MC cells that endogenously express the human CGRP receptor; endogenous in cells; host or cells: SK-N-MC cells
T2 sequence (Q16602 23-461): as the sequence (Q16602 23-461) above
T2 sequence (O60894 27-148): as the sequence (O60894 27-148) above
Method in brief: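 SK-N-MC cells, which endogenously express human CGRP receptor, stimulated with 0.3 nM CGRP with or without compound for 30 min at room temperature. Cellular cAMP extracted by lysis and quantified by SPA radioimmunoassay; IC50 from inhibition of CGRP-induced cAMP.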

[3] = test system: human cerebral vessels (CGRP-induced dilation); assay: Ex Vivo Human Cerebral Artery Assay, reversal of CGRP-induced relaxation; conditions: reversal of 1 nM hCGRP-induced relaxation, vessels pre-contracted with 10 mM KCl
Description: Rationale and Overview. To provided direct evidence of the ability for novel compounds to reverse CGRP-induced dilation in human cerebral vessels, an ex vivo assay was design. Briefly, isolated vessel rings were mounted in a tissue bath where vessels were pre-contracted with potassium chloride (KCl) and fully dilated with hCGRP, then this relaxation was reversed by the cumulative addition of CGRP-receptor antagonists (complete details follow).
Tissue Samples. Autopsy samples of human arteries were obtained from vendors (ABS Inc. or NDRI). All vessels were transported on ice-cold HEPES buffer (composition in mM: NaCl 130, KCl 4, KH2PO4 1.2, MgSO4 1.2, CaCl2 1.8, Glucose 6, NaHCO3 4, HEPES 10, EDTA 0.025). Upon receipt, the vessels were placed in cold Kreb's buffer (composition in mM: NaCl 118.4, KCl 4.7, KH2PO4 1.2, MgSO4 1.2, CaCl2 1.8, Glucose 10.1, NaHCO3 25) saturated with carbogen (5% CO2 and 95% oxygen).
Isolated Tissue Baths. The vessels were cleaned of connective tissues and cut into cylindrical segments of 4-5 mm in length. The vessels were then mounted in tissue baths between two stainless steel hooks; one of which is fixed and the other of which was connected to a force displacement transducer. The vessel tension was continuously recorded using a data acquisition system (Powerlab, ADInstruments, Mountain View, Calif.) connected to the transducer. The tissue baths containing Krebs buffer and mounted vessels were temperature (37° C.) and pH (7.4) controlled with continuous bubbling of carbogen. The artery segments were allowed to equilibrate for about 30-45 min until a stable resting tone was achieved. Prior to the assay, vessels were primed (conditioned) with 100 mM KCl and subsequently washed. The vessels were pre-contracted with 10 mM KCl and fully dilated with 1 nM hCGRP. Concentration-response curves to CGRP-receptor antagonists were performed by the cumulative addition of drugs in half log units in fully dilated vessels. At each concentration, the effects of the drugs were expressed as % reversal of CGRP-induced relaxation in each vessel. The actual assay and data analysis were performed for each vessel individually, fitting the concentration-response data to a four parameter logistic function by non-linear regression analysis, to estimate the EC50 values.

[4] = target: T2, human CGRP receptor (SK-N-MC cells); assay: Schild analysis of CGRP stimulated cAMP production; type: cell-based; conditions: for slope: Schild plot slope
Method: Functional Antagonism. Antagonism of the compounds of invention was determined by measuring the formation of cyclic AMP (adenosine 3′5′-cyclic monophosphate) in SK-N-MC cells that endogenously express the human CGRP receptor. CGRP receptor complex is coupled with Gs protein and CGRP binding to this complex leads to the cyclic AMP production via Gs—dependent activation of an adenylate cyclase (Juaneda C et al., TiPS, 2000; 21:432-438; incorporated by reference herein). Consequently, CGRP receptor antagonists inhibit CGRP-induced cyclic AMP formation in SK-N-MC cells (Doods H et al., Br J Pharmacol, 2000; 129(3):420-423); incorporated by reference herein). For cyclic AMP measurements SK-N-MC cells were incubated with 0.3 nM CGRP alone or in the presence of various concentrations of the compounds of invention for 30 min at room temperature. Compounds of invention were pre-incubated with SK-N-MC cells for 15 min before the addition of CGRP to allow receptor occupancy (Edvinsson et al., Eur J Pharmacol, 2001, 415:39-44; incorporated by reference herein). Cyclic AMP was extracted using the lysis reagent and its concentration was determined by radioimmunoassay using RPA559 cAMP SPA Direct Screening Assay Kit (Amersham Pharmacia Biotech). IC50 values were calculated using Excel fit.
Schild Analysis. Schild analysis can be used to characterize the nature of antagonism of the compounds of invention. The dose response of CGRP stimulated cAMP production was generated either with CGRP alone, or in the presence of various concentrations of compounds of invention. The antagonist dose is plotted as X against the dose ratio (defined as IC50 of agonist with the presence of the compounds divided by the IC50 of the agonist alone) minus 1 as Y. Linear regression was then performed with both X and Y axis log-transformed. […] Kb is the dissociation constant of the antagonist.

[5] = SK-N-MC cells, 0.3 nM CGRP, read-out: cAMP Function IC50
[6] = Schild analysis, dissociation constant of the antagonist, read-out: Kb

## O=C(NC(Cc1ccc2[nH]ccc2c1)C(=O)N1CCC(N2CCCCC2)CC1)N1CCC(n2c(=O)[nH]c3ccccc32)CC1 (racemic) [Example 3, (±)-4-(2-Oxo-2,3-dihydro-benzoimidazol-1-yl)-piperidine-1-carboxylic acid[2-[1,4′]bipiperidinyl-1′-yl-1-(1H-indol-5-ylmethyl)-2-oxo-ethyl]-amide]
[1]
  IC50: 10 to 100 nM
[2]; [5]
  IC50: 10 to 100 nM
[3]
  EC50: 10 to 100 nM
[4]; [6]
  Kb: 55 nM
[4]
  slope: 0.96

## Cc1cc(CC(NC(=O)N2CCC(N3Cc4ccccc4NC3=O)CC2)C(=O)N2CCCCC2)cc2cn[nH]c12 (racemic) [Example 17, (±)-4-(2-Oxo-1,4-dihydro-2H-quinazolin-3-yl)-piperidine-1-carboxylic acid[1-(7-methyl-1H-indazol-5-ylmethyl)-2-oxo-2-piperidin-1-yl-ethyl]-amide]
[1]
  IC50: < 10 nM
[2]; [5]
  IC50: < 10 nM
[3]
  EC50: < 10 nM
[4]; [6]
  Kb: 1.1 nM
[4]
  slope: 0.92

## Cc1cc(CC(NC(=O)N2CCC(N3Cc4ccccc4NC3=O)CC2)C(=O)N(C)C)cc2cn[nH]c12 (racemic) [Example 18, (±)-4-(2-Oxo-1,4-dihydro-2H-quinazolin-3-yl)-piperidine-1-carboxylic acid[1-dimethylcarbamoyl-2-(7-methyl-1H-indazol-5-yl)-ethyl]-amide]
[1]
  IC50: < 10 nM
[2]; [5]
  IC50: 10 to 100 nM
[3]
  EC50: < 10 nM
[4]; [6]
  Kb: 1 nM
[4]
  slope: 0.8

## Cc1cc(CC(NC(=O)N2CCC(N3Cc4ccccc4NC3=O)CC2)C(=O)N2CCN(c3ccncc3)CC2)cc2cn[nH]c12 (racemic) [Example 21, (±)-4-(2-Oxo-1,4-dihydro-2H-quinazolin-3-yl)-piperidine-1-carboxylic acid[1-(7-methyl-1H-indazol-5-ylmethyl)-2-oxo-2-(4-pyridin-4-yl-piperazin-1-yl)-ethyl]-amide]
[1]
  IC50: < 10 nM
[2]; [5]
  IC50: < 10 nM
[3]
  EC50: < 10 nM
[4]; [6]
  Kb: 0.018 nM
[4]
  slope: 0.89

## O=C(NC(Cc1cc(Cl)c2[nH]ncc2c1)C(=O)N1CCC(N2CCCCC2)CC1)N1CCC(N2Cc3ccccc3NC2=O)CC1 (racemic) [Example 43, (±)-4-(2-Oxo-1,4-dihydro-2H-quinazolin-3-yl)-piperidine-1-carboxylic acid[2-[1,4′]bipiperidinyl-1′-yl-1-(7-chloro-1H-indazol-5-ylmethyl)-2-oxo-ethyl]-amide]
[1]
  IC50: < 10 nM
[2]; [5]
  IC50: < 10 nM
[3]
  EC50: < 10 nM
[4]; [6]
  Kb: 0.018 nM
[4]
  slope: 1.2

## Cc1cc(CC(CC(=O)N2CCC(N3Cc4ccccc4NC3=O)CC2)C(=O)N2CCC3(CC2)OCCO3)cc2cn[nH]c12 (racemic) [Example 70, (±)-1-(1,4-Dioxa-8-aza-spiro[4.5]dec-8-yl)-2-(7-methyl-1H-indazol-5-ylmethyl)-4-[4-(2-oxo-1,4-dihydro-2H-quinazolin-3-yl)-piperidin-1-yl]-butane-1,4-dione]
[1]
  IC50: < 10 nM
[2]
  IC50: < 10 nM
[3]
  EC50: < 10 nM
[4]
  slope: 0.71

## Cc1cc(CC(CC(=O)N2CCC3(CC2)OC(=O)Nc2ccccc23)C(=O)N2CCC3(CC2)OCCO3)cc2cn[nH]c12 (racemic) [Example 71, (±)-1-(1,4-Dioxa-8-aza-spiro[4.5]dec-8-yl)-2-(7-methyl-1H-indazol-5-ylmethyl)-4-[1′,2′-dihydro-2′-oxospiro-[4H-3′,1-benzoxazine-4,4′-piperidinyl]-butane-1,4-dione]
[1]
  IC50: < 10 nM
[2]
  IC50: < 10 nM
[3]
  EC50: < 10 nM
[4]
  Kb: 2 nM
  slope: 0.87

## O=C(N[C@H](Cc1ccc2[nH]c(=O)oc2c1)C(=O)N1CCC(N2CCCCC2)CC1)N1CCC(N2Cc3ccccc3NC2=O)CC1 [Example 47, (R)-4-(2-Oxo-1,4-dihydro-2H-quinazolin-3-yl)-piperidine-1-carboxylic acid[2-[1,4′]bipiperidinyl-1′-yl-2-oxo-1-(2-oxo-2,3-dihydro-benzooxazol-6-ylmethyl)-ethyl]-amide]
[1]
  IC50: < 10 nM
[2]; [5]
  IC50: < 10 nM
[3]
  EC50: < 10 nM
[4]; [6]
  Kb: 0.1 nM
[4]
  slope: 0.93
